In patent US6348211B1, “Compositions and methods for treatment of attention deficit disorder and attention deficit/hyperactivity disorder with methylphenidate” (Noven Pharmaceuticals, Inc., priority 1997, dated 2002):

Key:
[1] = among the four enantiomers of methylphenidate; cited from earlier work
[2] = Degradation of methylphenidate in topical composition in the presence of acid functional groups; format: physicochemical; conditions: with every 1% increase by weight in acid functional component of the topical composition
From the text: It has been discovered that methylphenidate, and in particular the base form, can be unstable and undergoes degradation in the presence of acid functional groups which are contained in adhesives, enhancers, excipients and other components of the topical composition. The major degradant/metabolite appears to be ritalinic acid, which increases about ten fold with every 1% increase by weight in such acid functional component. Such degradation can greatly reduce the amount of the active enantiomer during storage of the topical composition, thus reducing the amount of active methylphenidate available for drug delivery.

| Compound | activity of enantiomer [1] | increase of major degradant ritalinic acid [2] |
| --- | --- | --- |
| COC(=O)[C@H](c1ccccc1)[C@H]1CCCCN1 [d-threo-methylphenidate] | significantly active | – |
| COC(=O)C(c1ccccc1)C1CCCCN1 (centres unmarked) [Methylphenidate] | – | about ten fold |
